This assay relates to HBV. Description: HBV replication inhibition assay (BDNA assay) in HepG2.2.15 cells. The class given is cell-based. The note with it: HepG2.2.15 cells, read-out: DNA EC50. As for the experimental part:
HBV replication inhibition by the disclosed compounds were determined in cells infected or transfected with HBV or cells with stably integrated HBV, such as HepG2.2.15 cells (Sells et al. 1987). In this example, HepG2.2.15 cells were maintained in cell culture medium containing 10% fetal bovine serum (FBS), Geneticin, L-glutamine, penicillin and streptomycin. HepG2.2.15 cells were seeded in 96-well plates at a density of 40,000 cells/well and were treated with serially diluted compounds at a final DMSO concentration of 0.5% either alone or in combination by adding drugs in a checker box format. Cells were incubated with compounds for three days, after which medium was removed and fresh medium containing compounds was added to cells and incubated for another three days. At day 6, supernatant was removed and treated with DNase at 37° C. for 60 minutes, followed by enzyme inactivation at 75° C. for 15 minutes. Encapsidated HBV DNA was released from the virions and covalently linked HBV polymerase by incubating in lysis buffer (Affymetrix QS0010) containing 2.5 μg proteinase K at 50° C. for 40 minutes. HBV DNA was denatured by addition of 0.2 M NaOH and detected using a branched DNA (BDNA) QuantiGene assay kit according to manufacturer recommendation (Affymetrix). HBV DNA levels were also quantified using qPCR, based on amplification of encapsidated HBV DNA extraction with QuickExtraction Solution (Epicentre Biotechnologies) and amplification of HBV DNA using HBV specific PCR probes that can hybridize to HBV DNA and a fluorescently labeled probe for quantitation. In addition, cell viability of HepG2.2.15 cells incubated with test compounds alone or in combination was determined by using CellTitre-Glo reagent according to the manufacturer protocol (Promega). The mean background signal from wells containing only culture medium was subtracted from all other samples, and percent inhibition at each compound concentration was calculated by normalizing to signals from HepG2.2.15 cells treated with 0.5% DMSO using equation E1. % inhibition=(DMSOave−Xi)/DMSOave×100% E1: […]
where DMSOave is the mean signal calculated from the wells that were treated with DMSO control (0% inhibition control) and Xi is the signal measured from the individual wells. EC50 values, effective concentrations that achieved 50% inhibitory effect, were determined by non-linear fitting using Graphpad Prism software (San Diego, Calif.) and equation E2: Y=Y min+(Y max−Y min)/(1+10(Log EC50−X)×HillSlope) E2: […]
where Y represents percent inhibition values and X represents the logarithm of compound concentrations.
Selected disclosed compounds were assayed in the HBV replication assay (BDNA assay), as described above, and a representative group of these active compounds is shown in Table 7. […] In Table 7, “A” represents 1<EC50≤100; “B” represents 100<EC50≤500; “C” represents 500<EC50≤1000; and “D” represents EC50>1000.

The mark [1] stands for this setting: HBV replication assay (BDNA assay).
Setting [2] is: Hepatitis B virus, HepG2.2.15, HBV replication assay (BDNA assay).

Read-outs that look alike come from different tables or passages of the source.

Data on 18 compounds can be found in patent US10987359B2, “Oxadiazepinone derivatives and methods of treating hepatitis B infections” (priority 2016, dated 2021).

As a reminder, the EC50 is the midpoint of the concentration-response curve.

Take `CCN1OC(CO)Cn2nc3c(c2C1=O)CN(C(=O)Nc1ccc(F)c(Cl)c1)CC3` (single isomer, unassigned) [Compound 060_E2, (R*)—N-(3-chloro-4-fluorophenyl)-2-ethyl-4-(hydroxymethyl)-1-oxo-1,4,5,8,9,11-hexahydropyrido[4′,3′:3,4]pyrazolo[5,1-d][1,2,5]oxadiazepine-10(2H)-carboxamide]: the EC50 under setting [1] lay in the range of 1 to 100 nM.
As for `Cc1cc(NC(=O)N2Cc3c(nn4c3C(=O)N(C)OC(CO)C4)C[C@H]2C)ccc1F` (single isomer, unassigned) [Compound 083_E1, (4S*,9R)—N-(4-fluoro-3-methylphenyl)-4-(hydroxymethyl)-2,9-dimethyl-1-oxo-1,4,5,8,9,11-hexahydropyrido[4′,3′:3,4]pyrazolo[5,1-d][1,2,5]oxadiazepine-10(2H)-carboxamide], the EC50 under setting [2] was in the range of 1 to 100 nM.
`Cc1cc(NC(=O)N2Cc3c(nn4c3C(=O)N(C)OC(CO)C4)C[C@H]2C)ccc1F` (single isomer, unassigned) [Compound 083_E2, (4R*,9R)—N-(4-fluoro-3-methylphenyl)-4-(hydroxymethyl)-2,9-dimethyl-1-oxo-1,4,5,8,9,11-hexahydropyrido[4′,3′:3,4]pyrazolo [5,1-d][1,2,5]oxadiazepine-10(2H)-carboxamide]: the EC50 under setting [1] was 1 to 100 nM.
With `C[C@@H]1Cc2nn3c(c2CN1C(=O)Nc1ccc(F)c(Cl)c1)C(=O)N(C)OC(CF)C3` (single isomer, unassigned) [Compound 088_E1, (4S*,9R)—N-(3-chloro-4-fluorophenyl)-4-(fluoromethyl)-2,9-dimethyl-1-oxo-1,4,5,8,9,11-hexahydropyrido[4′,3′:3,4]pyrazolo[5,1-d][1,2,5]oxadiazepine-10(2H)-carboxamide], under setting [2], the EC50 lay within 1 to 100 nM.
On to `C[C@@H]1Cc2nn3c(c2CN1C(=O)Nc1ccc(F)c(Cl)c1)C(=O)N(C)OC(CF)C3` (single isomer, unassigned) [Compound 088_E2, (4R*,9R)—N-(3-chloro-4-fluorophenyl)-4-(fluoromethyl)-2,9-dimethyl-1-oxo-1,4,5,8,9,11-hexahydropyrido[4′,3′:3,4]pyrazolo[5,1-d][1,2,5]oxadiazepine-10(2H)-carboxamide], for which the EC50 under setting [1] was 1 to 100 nM.
For `C[C@@H]1Cc2nn3c(c2CN1C(=O)Nc1ccc(F)c(Br)c1F)C(=O)N(C)OC(CO)C3` (single isomer, unassigned) [Compound 092_E1, (4S*,9R)—N-(3-bromo-2,4-difluorophenyl)-4-(hydroxymethyl)-2,9-dimethyl-1-oxo-1,4,5,8,9,11-hexahydropyrido[4′,3′:3,4]pyrazolo[5,1-d][1,2,5]oxadiazepine-10(2H)-carboxamide], the 50% effective concentration (EC50) under setting [2] is 1 to 100 nM.
`C[C@@H]1Cc2nn3c(c2CN1C(=O)Nc1ccc(F)c(Br)c1F)C(=O)N(C)OC(CO)C3` (single isomer, unassigned) [Compound 092_E2, (4R*,9R)—N-(3-bromo-2,4-difluorophenyl)-4-(hydroxymethyl)-2,9-dimethyl-1-oxo-1,4,5,8,9,11-hexahydropyrido[4′,3′:3,4]pyrazolo[5,1-d][1,2,5]oxadiazepine-10(2H)-carboxamide]: the EC50 under setting [1] was in the range of 1 to 100 nM.
On to `C[C@@H]1Cc2nn3c(c2CN1C(=O)Nc1ccc(F)c(Cl)c1)C(=O)N(C)OC(CN(C)C)C3` (single isomer, unassigned) [Compound 093_D1, (4S*,9R)—N-(3-chloro-4-fluorophenyl)-4-((dimethylamino)methyl)-2,9-dimethyl-1-oxo-1,4,5,8,9,11-hexahydropyrido[4′,3′:3,4]pyrazolo[5,1-d][1,2,5]oxadiazepine-10(2H)-carboxamide], for which, under setting [2], the EC50 was in the range of 1 to 100 nM.
On to `C[C@@H]1Cc2nn3c(c2CN1C(=O)Nc1cc(Br)c(F)cc1F)C(=O)N(C)OC(COCC(F)F)C3` (single isomer, unassigned) [Compound 108_D1, (4S*,9R)—N-(5-bromo-2,4-difluorophenyl)-4-((2,2-difluoroethoxy)methyl)-2,9-dimethyl-1-oxo-1,4,5,8,9,11-hexahydropyrido[4′,3′:3,4]pyrazolo[5,1-d][1,2,5]oxadiazepine-10(2H)-carboxamide], for which the EC50 under setting [1] is 100 to 500 nM.
Same read-out and setting: under `C[C@@H]1Cc2nn3c(c2CN1C(=O)Nc1cc(Br)c(F)cc1F)C(=O)N(C)OC(COCC(F)F)C3` (single isomer, unassigned) [Compound 108_D2, (4R*,9R)—N-(5-bromo-2,4-difluorophenyl)-4-((2,2-difluoroethoxy)methyl)-2,9-dimethyl-1-oxo-1,4,5,8,9,11-hexahydropyrido[4′,3′:3,4]pyrazolo[5,1-d][1,2,5]oxadiazepine-10(2H)-carboxamide] stands 1 to 100 nM.
Same read-out and setting: under `CNC(=O)C1Cn2nc3c(c2C(=O)N(C)O1)CN(C(=O)Nc1ccc(F)c(Cl)c1F)[C@H](C)C3` (single isomer, unassigned) [Compound 110_D1, (4S*,9R)—N10-(3-chloro-2,4-difluorophenyl)-N4,2,9-trimethyl-1-oxo-1,4,5,8,9,11-hexahydropyrido[4′,3′:3,4]pyrazolo[5,1-d][1,2,5]oxadiazepine-4,10(2H)-dicarboxamide] stands 500 to 1000 nM; under `CNC(=O)C1Cn2nc3c(c2C(=O)N(C)O1)CN(C(=O)Nc1ccc(F)c(Cl)c1F)[C@H](C)C3` (single isomer, unassigned) [Compound 110_D2, (4R*,9R)—N10-(3-chloro-2,4-difluorophenyl)-N4,2,9-trimethyl-1-oxo-1,4,5,8,9,11-hexahydropyrido[4′,3′:3,4]pyrazolo[5,1-d][1,2,5]oxadiazepine-4,10(2H)-dicarboxamide], 1 to 100 nM.
Turning to `C[C@@H]1Cc2nn3c(c2CN1C(=O)Nc1ccc(F)c(C#N)c1)C(=O)N(C)OC(CN)C3` (single isomer, unassigned) [Compound 115_D1, (4S*,9R)-4-(aminomethyl)-N-(3-cyano-4-fluorophenyl)-2,9-dimethyl-1-oxo-1,4,5,8,9,11-hexahydropyrido[4′,3′:3,4]pyrazolo[5,1-d][1,2,5]oxadiazepine-10(2H)-carboxamide], the EC50 under setting [2] was 1 to 100 nM.
`C[C@@H]1Cc2nn3c(c2CN1C(=O)Nc1ccc(F)c(Cl)c1)C(=O)N(C)OC(COCC(F)F)C3` (single isomer, unassigned) [Compound 121_D1, (4S*,9R)—N-(3-chloro-4-fluorophenyl)-4-((2,2-difluoroethoxy)methyl)-2,9-dimethyl-1-oxo-1,4,5,8,9,11-hexahydropyrido[4′,3′:3,4]pyrazolo[5,1-d][1,2,5]oxadiazepine-10(2H)-carboxamide]: under setting [2], the EC50 is 1 to 100 nM.
On the same count and under the same terms, in the case of `CN1OC(CO)Cn2nc3c(c2C1=O)CN(C(=O)Nc1cc(F)c(F)c(Cl)c1F)CC3` (single isomer, unassigned) [Compound 137_E1, (S*)—N-(3-chloro-2,4,5-trifluorophenyl)-4-(hydroxymethyl)-2-methyl-1-oxo-1,4,5,8,9,11-hexahydropyrido[4′,3′:3,4]pyrazolo[5,1-d][1,2,5]oxadiazepine-10(2H)-carboxamide] it was 1 to 100 nM; in that of `CN1OC(CO)Cn2nc3c(c2C1=O)CN(C(=O)Nc1c(F)ccc(Cl)c1F)CC3` (single isomer, unassigned) [Compound 138_E1, (S*)—N-(3-chloro-2,6-difluorophenyl)-4-(hydroxymethyl)-2-methyl-1-oxo-1,4,5,8,9,11-hexahydropyrido[4′,3′:3,4]pyrazolo[5,1-d][1,2,5]oxadiazepine-10(2H)-carboxamide], 100 to 500 nM.
`CN1OC(CO)Cn2nc3c(c2C1=O)CN(C(=O)Nc1cc(Cl)ccc1F)CC3` (single isomer, unassigned) [Compound 139_E1, (S*)—N-(5-chloro-2-fluorophenyl)-4-(hydroxymethyl)-2-methyl-1-oxo-1,4,5,8,9,11-hexahydropyrido[4′,3′:3,4]pyrazolo[5,1-d][1,2,5]oxadiazepine-10(2H)-carboxamide]: under setting [2], the EC50 was in the range of 1 to 100 nM.
Still for that read-out and setting: in the case of `CN1OC(CO)Cn2nc3c(c2C1=O)CN(C(=O)Nc1cc(Br)cc(F)c1F)CC3` (single isomer, unassigned) [Compound 140_E1, (S*)—N-(5-bromo-2,3-difluorophenyl)-4-(hydroxymethyl)-2-methyl-1-oxo-1,4,5,8,9,11-hexahydropyrido[4′,3′:3,4]pyrazolo[5,1-d][1,2,5]oxadiazepine-10(2H)-carboxamide] it was 1 to 100 nM.
